14 molecules from ChEMBL document CHEMBL3596127, “Design, synthesis and molecular docking of novel bipyrazolyl thiazolone scaffold as a new class of antibacterial agents” (Medchemcomm, 2014) can be followed below.

pIC50: −log10 of the molar value. In brackets after ≈: the same amount, converted by molar mass. Bounds are passed on as bounds.

In one data set the test system is Escherichia coli. Description: Antibacterial activity against Escherichia coli ATCC 35218 after 24 hrs by MTT assay. The class given is functional. The following applies: ATCC 35218, 24 h.
Another data set deals with Staphylococcus aureus. Kind of data set: Antibacterial activity against Staphylococcus aureus ATCC 6538 after 24 hrs by MTT assay. The class given is functional. The following applies: ATCC 6538, 24 h.
The test system of the next data set is Bacillus spizizenii. Description: Antibacterial activity against Bacillus subtilis ATCC 6633 after 24 hrs by MTT assay. The following applies: ATCC 6633, 24 h. The class given is functional.
For the next data set, the system named is Pseudomonas aeruginosa. Kind of data set: Antibacterial activity against Pseudomonas aeruginosa ATCC 13525 after 24 hrs by MTT assay. The following applies: ATCC 13525, 24 h. The class given is functional.
A short description of data set [1]: Hemolytic activity in RBC (unknown origin). The following applies: erythrocyte. The class given is ADME, cell-based.
Data set [2] can be described thus: Inhibition of full-length N-terminal His-tagged Escherichia coli FabH expressed in Escherichia coli BL21 (DE3) using acetyl-CoA/[3H]-acetyl-CoA/holo-ACP as substrate by liquid scintillation counting analysis.

Regarding `CC1(C)S[C@@H]2[C@H](NC(=O)Cc3ccccc3)C(=O)N2[C@H]1C(=O)O` [PENICILLIN G], the minimal inhibitory concentration (MIC) in the data set on Escherichia coli is 3.13 µg/mL (≈ 9.36 µM); in the data set with Staphylococcus aureus, 6.25 µg/mL (≈ 18.7 µM); against Bacillus spizizenii it was 1.56 µg/mL (≈ 4.67 µM); against Pseudomonas aeruginosa, 6.25 µg/mL (≈ 18.7 µM).

Consider `Cc1nn(-c2ccccc2)c(-n2cncn2)c1C1CC(c2cccs2)=NN1C1=NC(=O)/C(=C/c2cccs2)S1` (configuration not stated), for which the MIC in the data set on Escherichia coli worked out at 25 µg/mL (≈ 44 µM); with Staphylococcus aureus, 6.25 µg/mL (≈ 11 µM); with Bacillus spizizenii, 25 µg/mL (≈ 44 µM); in the data set with Pseudomonas aeruginosa, 50 µg/mL (≈ 87.9 µM). For the same molecule, the LC30 in data set [1] was > 10000 µg/mL. The pIC50 in data set [2] is 4.81.

`Cc1nn(-c2ccccc2)c(-n2nnc3ccccc32)c1C1CC(c2cccs2)=NN1C1=NC(=O)/C(=C/c2cccs2)S1` (configuration not stated): the MIC in the data set on Escherichia coli is 50 µg/mL (≈ 80.8 µM); against Staphylococcus aureus it was > 50 µg/mL; with Bacillus spizizenii, 12.5 µg/mL (≈ 20.2 µM); against Pseudomonas aeruginosa, 6.25 µg/mL (≈ 10.1 µM). Also, the LC30 in data set [1] is > 10000 µg/mL. Moreover, the pIC50 in data set [2] is 4.76.

With `Cc1nn(-c2ccccc2)c(-n2nnc3ccccc32)c1C1CC(c2cccs2)=NN1C1=NC(=O)/C(=C/c2ccco2)S1` (configuration not stated), the MIC in the data set with Escherichia coli is > 50 µg/mL; against Staphylococcus aureus, 50 µg/mL (≈ 83 µM); against Bacillus spizizenii, > 50 µg/mL; against Pseudomonas aeruginosa, 6.25 µg/mL (≈ 10.4 µM). Besides, the LC30 in data set [1] was > 10000 µg/mL. In data set [2], the pIC50 was 4.66.

For `Cc1nn(-c2ccccc2)c(-n2ccnc2)c1C1CC(c2cccs2)=NN1C1=NC(=O)/C(=C/c2ccco2)S1` (configuration not stated), the minimal inhibitory concentration (MIC) is 25 µg/mL (≈ 45.3 µM) in the data set with Escherichia coli, 6.25 µg/mL (≈ 11.3 µM) against Staphylococcus aureus, 25 µg/mL (≈ 45.3 µM) in the data set with Bacillus spizizenii and > 50 µg/mL in the data set with Pseudomonas aeruginosa. In addition, in data set [1], the LC30 is > 10000 µg/mL. The same molecule had a negative logarithm of the IC50 (pIC50) in data set [2] of 4.89.

With `Cc1nn(-c2ccccc2)c(-n2cncn2)c1C1CC(c2cccs2)=NN1C1=NC(=O)/C(=C/c2ccco2)S1` (configuration not stated), the minimum inhibitory concentration (MIC) in the data set on Escherichia coli is 50 µg/mL (≈ 90.5 µM); against Staphylococcus aureus, > 50 µg/mL; in the data set on Bacillus spizizenii, 25 µg/mL (≈ 45.2 µM); against Pseudomonas aeruginosa it was 50 µg/mL (≈ 90.5 µM). Further, the LC30 in data set [1] is > 10000 µg/mL. The same molecule showed a pIC50 in data set [2] of 4.58.

Turning to `Cc1nn(-c2ccccc2)c(-n2ccnc2)c1C1CC(c2cccs2)=NN1C1=NC(=O)/C(=C/c2c[nH]c3ccccc23)S1` (configuration not stated), the MIC with Escherichia coli is 6.25 µg/mL (≈ 10.4 µM); in the data set with Staphylococcus aureus it was 50 µg/mL (≈ 83.2 µM); in the data set with Bacillus spizizenii it was 25 µg/mL (≈ 41.6 µM); against Pseudomonas aeruginosa, 3.13 µg/mL (≈ 5.21 µM). For the same molecule, the LC30 in data set [1] was > 10000 µg/mL. The molecule also showed a pIC50 in data set [2] of 5.41.

On to `Cc1nn(-c2ccccc2)c(-n2cnc3ccccc32)c1C1CC(c2cccs2)=NN1C1=NC(=O)/C(=C/c2ccco2)S1` (configuration not stated), for which the MIC is > 50 µg/mL against Escherichia coli, 12.5 µg/mL (≈ 20.8 µM) against Staphylococcus aureus, 6.25 µg/mL (≈ 10.4 µM) against Bacillus spizizenii and > 50 µg/mL in the data set with Pseudomonas aeruginosa. In data set [1], the LC30 was > 10000 µg/mL. The same molecule showed a negative-log IC50 (pIC50) in data set [2] of 5.07.

In the case of `Cc1nn(-c2ccccc2)c(-n2ccnc2)c1C1CC(c2cccs2)=NN1C1=NC(=O)/C(=C/c2cccs2)S1` (configuration not stated), the MIC in the data set with Escherichia coli is > 50 µg/mL; with Staphylococcus aureus, 25 µg/mL (≈ 44 µM); with Bacillus spizizenii, > 50 µg/mL; in the data set on Pseudomonas aeruginosa it was 25 µg/mL (≈ 44 µM). Besides, the LC30 in data set [1] was > 10000 µg/mL. The molecule further gave a pIC50 in data set [2] of 4.95.

Take `Cc1nn(-c2ccccc2)c(-n2cnc3ccccc32)c1C1CC(c2cccs2)=NN1C1=NC(=O)/C(=C/c2cccs2)S1` (configuration not stated): the minimum inhibitory concentration (MIC) amounted to 25 µg/mL (≈ 40.5 µM) in the data set with Escherichia coli, 25 µg/mL (≈ 40.5 µM) against Staphylococcus aureus, 3.13 µg/mL (≈ 5.07 µM) in the data set on Bacillus spizizenii and 25 µg/mL (≈ 40.5 µM) in the data set with Pseudomonas aeruginosa. For the same molecule, the LC30 in data set [1] is > 10000 µg/mL. In data set [2], this molecule had a pIC50 of 5.04.

On to `NC[C@H]1O[C@H](O[C@H]2[C@H](O)[C@@H](O[C@H]3O[C@H](CO)[C@@H](O)[C@H](N)[C@H]3O)[C@H](N)C[C@@H]2N)[C@H](N)[C@@H](O)[C@@H]1O` [BEKANAMYCIN], for which the minimal inhibitory concentration (MIC) in the data set with Escherichia coli was 1.56 µg/mL (≈ 3.23 µM); in the data set on Staphylococcus aureus, 1.56 µg/mL (≈ 3.23 µM); with Bacillus spizizenii it was 0.39 µg/mL (≈ 0.807 µM); with Pseudomonas aeruginosa it was 3.13 µg/mL (≈ 6.47 µM). Moreover, the LC30 in data set [1] is > 10000 µg/mL. The molecule also had a pIC50 in data set [2] of 5.20.

Regarding `Cc1nn(-c2ccccc2)c(-n2nnc3ccccc32)c1C1CC(c2cccs2)=NN1C1=NC(=O)/C(=C/c2c[nH]c3ccccc23)S1` (configuration not stated), the minimal inhibitory concentration (MIC) against Escherichia coli was 3.13 µg/mL (≈ 4.8 µM); against Staphylococcus aureus it was 25 µg/mL (≈ 38.4 µM); in the data set with Bacillus spizizenii, > 50 µg/mL; against Pseudomonas aeruginosa it was 6.25 µg/mL (≈ 9.59 µM). For the same molecule, the LC30 in data set [1] was > 10000 µg/mL. Also, the negative-log IC50 (pIC50) in data set [2] was 5.51.

Consider `Cc1nn(-c2ccccc2)c(-n2cncn2)c1C1CC(c2cccs2)=NN1C1=NC(=O)/C(=C/c2c[nH]c3ccccc23)S1` (configuration not stated), for which the MIC in the data set on Escherichia coli is 12.5 µg/mL (≈ 20.8 µM); in the data set with Staphylococcus aureus it was > 50 µg/mL; with Bacillus spizizenii, 25 µg/mL (≈ 41.5 µM); against Pseudomonas aeruginosa, > 50 µg/mL. In addition, in data set [1], the LC30 is > 10000 µg/mL. The molecule also showed a pIC50 in data set [2] of 5.33.

With `Cc1nn(-c2ccccc2)c(-n2cnc3ccccc32)c1C1CC(c2cccs2)=NN1C1=NC(=O)/C(=C/c2c[nH]c3ccccc23)S1` (configuration not stated), the minimal inhibitory concentration (MIC) against Escherichia coli was 3.13 µg/mL (≈ 4.81 µM); with Staphylococcus aureus, 50 µg/mL (≈ 76.8 µM); against Bacillus spizizenii, 12.5 µg/mL (≈ 19.2 µM); against Pseudomonas aeruginosa it was 12.5 µg/mL (≈ 19.2 µM). The LC30 in data set [1] was > 10000 µg/mL. In data set [2], this molecule showed a negative-log IC50 (pIC50) of 5.60.
